Substitutions are numbered along the chain they refer to. Where two headings read alike, the source gives them in different places.
Legend:
σ2 receptor = biological target: T1, σ2 receptor (Rattus norvegicus, UniProt Q5U3Y7); test: σ2 receptor binding assay, [3H]DTG, rat liver membrane homogenates
T1 construct: rat liver membrane homogenates (35 μg of protein); from tissue; host or cells: rat liver membrane homogenates
T1 sequence (Q5U3Y7 1-176): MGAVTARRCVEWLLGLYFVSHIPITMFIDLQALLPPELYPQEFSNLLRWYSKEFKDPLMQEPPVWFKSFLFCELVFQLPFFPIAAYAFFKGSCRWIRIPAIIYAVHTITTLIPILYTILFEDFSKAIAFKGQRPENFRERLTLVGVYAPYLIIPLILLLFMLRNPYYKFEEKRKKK
Description: The σ2 receptor binding assay was conducted using rat liver membrane homogenates (35 μg of protein). […] Incubations were carried out in 50 mM Tris-HCl (pH 8.0) for 120 min at 25° C. in a total incubation volume of 0.5 ml. Test compounds were added in concentrations ranging from 0.005 to 1000 nM. […] Filters were washed twice with 5 ml of ice cold buffer. Nonspecific binding was determined in the presence of 5 μM DTG.

[1] = biological target: T2, σ2 receptors in the breast tumors (Mus musculus, UniProt Q8VD00); test: In vivo blocking studies with YUN 143 in tumor-bearing mice; conditions: blocking agent YUN 143 (1 mg/kg, i.v.); time point of highest % I.D./gram tumor
T2 construct: mature Balb/c mice that were implanted with EMT-6 mammary tumors; from tissue; host or cells: EMT-6 mammary tumours in Balb/c mice, in vivo
T2 sequence (Q8VD00 1-176): T1 sequence (Q5U3Y7 1-176) with V4L, T5A, M26L, L33V, F71L, V105A, I118L, I127V, N136S, F169Y
From the text: The blocking agent was YUN 143, which has a high affinity for σ1 and σ2 receptors. Animals were sacrificed at the time point displaying the highest % I.D./gram tumor.
The inventors then conducted blocking studies in order to confirm that the radiotracer labeled σ2 receptors in the breast tumors. […] We have previously reported that [^18F]YUN 143 labels σ1 and σ2 receptors in breast tumor xenografts (Mach et al., 2001).

EMT-6 mammary tumors [2] = test: Comparison with [18F]FLT in tumor-bearing mice; assay type: in vivo; conditions: 1 hr for [11C]10; 2 hr post-i.v. injection for [76Br]6 and [125I]6i
EMT-6 mammary tumors [3] = test: Biodistribution in EMT-6 BALB/C mice; assay type: in vivo
Description: As used herein, the term “tumor:background ratio” (i.e., tumor:fat ratio, tumor:muscle ratio, tumor:lung ratio, tumor:blood ratio) refers to the % injected dose/g tissue of the radiotracer in the tumor divided by the % injected dose/g […] in the background tissue (i.e., fat, muscle, lung, blood).
B. Biodistribution Studies of ^11C analogs in Tumor-Bearing Mice. Biodistribution studies were conducted in mature Balb/c mice that were implanted with EMT-6 mammary tumors identified herein as EMT-6 BALB/C mice to create laboratory tumor-bearing mice. The mice were implanted in the scapular region seven days prior to the study. Animals were injected with 100-150 μCi of the ^11C-labeled radiotracer and the animals were sacrificed at 5, 30, and 60 min post-i.v. injection of the radiotracer.
A series of biodistribution studies in tumor-bearing mice were also conducted with [^76Br]8, [^76Br]6, [^125I]8i, and [^125I]6i.

Q: For `COc1cc2c(cc1OC)CN(CCNC(=O)c1cc(C)ccc1OC)CC2` [Compound 9], which Ki (σ2 receptor; Mean ± SEM, rat liver, [3H]DTG, read-out: Ki σ2) is on record?
A: 13.3 ± 0.1 nM

Q: And the Ki (σ2 receptor; Table I, unit inferred, read-out: σ2)?
A: 13.3 nM

Q: Which “in vivo blocking study result” value [1] does the source give for `COc1cc2c(cc1OC)CN(CCCCNC(=O)c1cc(C)cc(OC)c1O[11CH3])CC2` [[^11C]10] here?
A: consistent with the labeling of σ2 receptors in vivo

Q: What about the “tumor:background ratios compared with [18F]FLT” value (EMT-6 mammary tumors [2]) of the same molecule?
A: tumor:lung and tumor:fat ratios equal to [^18F]FLT and tumor:blood, tumor:muscle and tumor:heart ratios that are greater than that of [18F]FLT

Q: And the “ratio Tumor:blood” value (EMT-6 mammary tumors [3]; 5 min)?
A: 1.37 ± 0.33

Q: What about the “ratio Tumor:fat” value (EMT-6 mammary tumors [3]; 5 min) of the same molecule?
A: 2.28 ± 0.32

Q: And the “ratio Tumor:heart” value (EMT-6 mammary tumors [3]; 5 min)?
A: 0.71 ± 0.12

Q: What about the “ratio Tumor:lung” value (EMT-6 mammary tumors [3]; 5 min) of the same molecule?
A: 0.31 ± 0.11

Q: And the “ratio Tumor:muscle” value (EMT-6 mammary tumors [3]; 5 min)?
A: 0.93 ± 0.13

Q: And the “ratio Tumor:blood” value (EMT-6 mammary tumors [3]; 30 min)?
A: 1.80 ± 0.26

Q: What about the “ratio Tumor:fat” value (EMT-6 mammary tumors [3]; 30 min) of the same molecule?
A: 3.68 ± 1.14

Q: What about the “ratio Tumor:heart” value (EMT-6 mammary tumors [3]; 30 min) of the same molecule?
A: 2.53 ± 0.55

Q: And the “ratio Tumor:lung” value (EMT-6 mammary tumors [3]; 30 min)?
A: 1.06 ± 0.24

Q: What about the “ratio Tumor:muscle” value (EMT-6 mammary tumors [3]; 30 min) of the same molecule?
A: 3.18 ± 0.51

Q: What about the “ratio Tumor:blood” value (EMT-6 mammary tumors [3]; 1 hour) of the same molecule?
A: 1.81 ± 0.11

Q: What about the “ratio Tumor:fat” value (EMT-6 mammary tumors [3]; 1 hour) of the same molecule?
A: 5.36 ± 2.38

Q: What about the “ratio Tumor:heart” value (EMT-6 mammary tumors [3]; 1 hour) of the same molecule?
A: 2.78 ± 0.79

Q: And the “ratio Tumor:lung” value (EMT-6 mammary tumors [3]; 1 hour)?
A: 1.28 ± 0.41

Q: And the “ratio Tumor:muscle” value (EMT-6 mammary tumors [3]; 1 hour)?
A: 2.78 ± 0.62

Q: What about the “% ID per gram blood” value (EMT-6 mammary tumors [3]; 5 min) of the same molecule?
A: 3.09 ± 0.33 % ID per gram

Q: And the “% ID per gram blood” value (EMT-6 mammary tumors [3]; 30 min)?
A: 1.31 ± 0.11 % ID per gram

Q: What about the “% ID per gram blood” value (EMT-6 mammary tumors [3]; 1 hour) of the same molecule?
A: 0.73 ± 0.05 % ID per gram

Q: What about the “% ID per gram brain” value (EMT-6 mammary tumors [3]; 5 min) of the same molecule?
A: 2.29 ± 0.28 % ID per gram

Q: What about the “% ID per gram brain” value (EMT-6 mammary tumors [3]; 30 min) of the same molecule?
A: 0.28 ± 0.03 % ID per gram

Q: And the “% ID per gram brain” value (EMT-6 mammary tumors [3]; 1 hour)?
A: 0.15 ± 0.01 % ID per gram

Q: And the “% ID per gram fat” value (EMT-6 mammary tumors [3]; 5 min)?
A: 1.88 ± 0.50 % ID per gram

Q: What about the “% ID per gram fat” value (EMT-6 mammary tumors [3]; 30 min) of the same molecule?
A: 0.68 ± 0.19 % ID per gram

Q: And the “% ID per gram fat” value (EMT-6 mammary tumors [3]; 1 hour)?
A: 0.33 ± 0.24 % ID per gram

Q: What about the “% ID per gram heart” value (EMT-6 mammary tumors [3]; 5 min) of the same molecule?
A: 5.86 ± 0.47 % ID per gram

Q: And the “% ID per gram heart” value (EMT-6 mammary tumors [3]; 30 min)?
A: 0.95 ± 0.17 % ID per gram

Q: What about the “% ID per gram heart” value (EMT-6 mammary tumors [3]; 1 hour) of the same molecule?
A: 0.50 ± 0.11 % ID per gram

Q: What about the “% ID per gram kidney” value (EMT-6 mammary tumors [3]; 5 min) of the same molecule?
A: 20.50 ± 1.86 % ID per gram

Q: And the “% ID per gram kidney” value (EMT-6 mammary tumors [3]; 30 min)?
A: 4.12 ± 0.51 % ID per gram

Q: And the “% ID per gram kidney” value (EMT-6 mammary tumors [3]; 1 hour)?
A: 2.26 ± 0.36 % ID per gram

Q: And the “% ID per gram liver” value (EMT-6 mammary tumors [3]; 5 min)?
A: 12.32 ± 1.73 % ID per gram

Q: And the “% ID per gram liver” value (EMT-6 mammary tumors [3]; 30 min)?
A: 9.65 ± 2.00 % ID per gram

Q: What about the “% ID per gram liver” value (EMT-6 mammary tumors [3]; 1 hour) of the same molecule?
A: 3.00 ± 0.21 % ID per gram

Q: What about the “% ID per gram lung” value (EMT-6 mammary tumors [3]; 5 min) of the same molecule?
A: 14.02 ± 1.40 % ID per gram

Q: And the “% ID per gram lung” value (EMT-6 mammary tumors [3]; 30 min)?
A: 2.27 ± 0.42 % ID per gram

Q: What about the “% ID per gram lung” value (EMT-6 mammary tumors [3]; 1 hour) of the same molecule?
A: 1.09 ± 0.26 % ID per gram

Q: What about the “% ID per gram muscle” value (EMT-6 mammary tumors [3]; 5 min) of the same molecule?
A: 4.49 ± 0.45 % ID per gram

Q: And the “% ID per gram muscle” value (EMT-6 mammary tumors [3]; 30 min)?
A: 0.75 ± 0.13 % ID per gram

Q: What about the “% ID per gram muscle” value (EMT-6 mammary tumors [3]; 1 hour) of the same molecule?
A: 0.49 ± 0.11 % ID per gram

Q: What about the “% ID per gram tumor” value (EMT-6 mammary tumors [3]; 5 min) of the same molecule?
A: 4.22 ± 1.01 % ID per gram

Q: And the “% ID per gram tumor” value (EMT-6 mammary tumors [3]; 30 min)?
A: 2.35 ± 0.27 % ID per gram

Q: What about the “% ID per gram tumor” value (EMT-6 mammary tumors [3]; 1 hour) of the same molecule?
A: 1.32 ± 0.17 % ID per gram
